According to ChEMBL document CHEMBL3272203, “Phosphorus-nitrogen compounds. 22. Synthesis and antitumor activity of arylsulfonylhydrazone analogues” (J Med Chem, 1978):
One block for each molecule: values may come before it.

Legend:
P388 [1] = test: Antitumor activity against mouse P388 cells allografted in mouse assessed as host survival time at 100 mg/kg administered qd for 9 days beginning 24 hrs after tumor implantation relative to control; type: functional
Sarcoma-180 [2] = test: Antitumor activity against mouse Sarcoma 180 cells allografted in mouse assessed as host survival time at 50 mg/kg administered qd for 6 days beginning 24 hrs after tumor implantation relative to control in presence of 8 mg/kg CuCl2; type: functional
Sarcoma-180 [3] = test: Antitumor activity against mouse Sarcoma 180 cells allografted in mouse assessed as host survival time at 100 mg/kg administered qd for 6 days beginning 24 hrs after tumor implantation relative to control; type: functional
Ehrlich [4] = test: Antitumor activity against mouse Ehrlich ascites carcinoma cells allografted in mouse assessed as host survival time at 100 mg/kg administered qd for 6 days beginning 24 hrs after tumor implantation relative to control; type: functional
P388 [5] = test: Antitumor activity against mouse P388 cells allografted in mouse assessed as host survival time at 50 mg/kg administered qd for 9 days beginning 24 hrs after tumor implantation relative to control in presence of 8 mg/kg CuCl2; type: functional
Ehrlich [6] = test: Antitumor activity against mouse Ehrlich ascites carcinoma cells allografted in mouse assessed as host survival time at 50 mg/kg administered qd for 6 days beginning 24 hrs after tumor implantation relative to control in presence of 8 mg/kg CuCl2; type: functional
[7] = Octanol-water partition coefficient, log P of the compound; type: physicochemical
[8] = Metal chelating activity of the compound assessed as Co2+-complex formation by absorbance analysis; type: physicochemical
Ehrlich [9] = test: Antitumor activity against mouse Ehrlich ascites carcinoma cells allografted in mouse assessed as host survival time at 40 mg/kg administered qd for 6 days beginning 24 hrs after tumor implantation relative to control in presence of 8 mg/kg CuCl2; type: functional
[10] = Metal chelating activity of the compound assessed as cupric ion complex formation at drug:cupric chloride ratio of 2:1 by absorbance analysis; type: physicochemical
Sarcoma-180 [11] = test: Antitumor activity against mouse Sarcoma 180 cells allografted in mouse assessed as host survival time at 40 mg/kg administered qd for 6 days beginning 24 hrs after tumor implantation relative to control in presence of 8 mg/kg CuCl2; type: functional
[12] = Metal chelating activity of the compound assessed as Fe2+-complex formation by absorbance analysis; type: physicochemical
P388 [13] = test: Antitumor activity against mouse P388 cells allografted in mouse assessed as host survival time at 40 mg/kg administered qd for 9 days beginning 24 hrs after tumor implantation relative to control in presence of 8 mg/kg CuCl2; type: functional
[14] = Metal chelating activity of the compound assessed as cupric ion complex formation at drug:cupric chloride ratio of 1:1 by absorbance analysis; type: physicochemical
[15] = Metal chelating activity of the compound assessed as cupric ion complex formation by absorbance analysis; type: physicochemical

Structure (SMILES): S=P(N/N=C/c1ccccn1)(N/N=C/c1ccccn1)c1ccccc1
T/C (P388 [1]): 108% | T/C (Sarcoma-180 [2]): 87% | T/C (Sarcoma-180 [3]): 81% | T/C (Ehrlich [4]): 190% | T/C (P388 [5]): 95% | T/C (Ehrlich [6]): 150%

Structure (SMILES): O=P(N/N=C/c1cccc[n+]1[O-])(Oc1ccccc1)Oc1ccccc1
T/C (P388 [1]): 111% | T/C (P388 [5]): 95%

logP [7]: -1.69
Structure (SMILES): [O-][n+]1ccccc1

Structure (SMILES): O.O=P(O)(N/N=C/c1cccc[n+]1[O-])Oc1ccccc1
Activity [8]: Active | T/C (Ehrlich [9]): 164% | Activity [10]: Active | T/C (Sarcoma-180 [11]): 87% | T/C (Sarcoma-180 [3]): 107% | T/C (Ehrlich [4]): 118% | logP [7]: -0.76 | Activity [12]: Not Active

Structure (SMILES): O=P1(N(CCCl)CCCl)NCCCO1 (centres undefined) [CYCLOPHOSPHAMIDE ANHYDROUS]
logP [7]: 0.63

Structure (SMILES): O=P(N/N=C/c1ccccn1)(Oc1ccccc1)Oc1ccccc1
T/C (P388 [1]): 117% | Activity [10]: Active | T/C (P388 [13]): 92%

Structure (SMILES): S=P(N/N=C/c1ccccn1)(N/N=C/c1ccccn1)Oc1ccccc1
T/C (P388 [1]): 87% | T/C (Ehrlich [9]): 269% | T/C (Sarcoma-180 [11]): 141% | T/C (P388 [13]): 97% | T/C (Sarcoma-180 [3]): 93% | T/C (Ehrlich [4]): 114% | logP [7]: 1.62

Structure (SMILES): [O-][n+]1ccccc1/C=N/NP(=S)(Oc1ccccc1)Oc1ccccc1
Activity [8]: Not Active | T/C (P388 [1]): 113% | T/C (Ehrlich [9]): 204% | T/C (Sarcoma-180 [11]): 106% | T/C (P388 [13]): 94% | T/C (Sarcoma-180 [3]): 93% | T/C (Ehrlich [4]): 144% | Activity [12]: Not Active

Structure (SMILES): CCOP(=S)(N/N=C/c1cccc[n+]1[O-])OCC
Activity [8]: Not Active | T/C (P388 [1]): 111% | T/C (Ehrlich [9]): 135% | T/C (Sarcoma-180 [11]): 126% | T/C (P388 [13]): 73% | T/C (Sarcoma-180 [3]): 96% | T/C (Ehrlich [4]): 108% | Activity [12]: Not Active

Structure (SMILES): S=P(N/N=C/c1ccccn1)(Oc1ccccc1)Oc1ccccc1
T/C (P388 [1]): 102% | T/C (P388 [13]): 94%

Structure (SMILES): O.O=P(O)(N/N=C/c1ccccn1)Oc1ccccc1
Activity [8]: Active | T/C (P388 [1]): 103% | T/C (Ehrlich [9]): 163% | T/C (Sarcoma-180 [11]): 79% | T/C (P388 [13]): 99% | Activity [14]: Active | T/C (Sarcoma-180 [3]): 95% | T/C (Ehrlich [4]): 115% | Activity [12]: Not Active

Structure (SMILES): CCOP(=O)(N/N=C/c1cccc[n+]1[O-])OCC
Activity [8]: Not Active | T/C (P388 [1]): 108% | T/C (Ehrlich [9]): 98% | T/C (P388 [13]): 78% | Activity [15]: Not Active | T/C (Ehrlich [4]): 160% | Activity [12]: Not Active

Structure (SMILES): [O-][n+]1ccccc1/C=N/NP(=S)(N/N=C/c1cccc[n+]1[O-])c1ccccc1
Activity [8]: Not Active | T/C (P388 [1]): 114% | T/C (Sarcoma-180 [2]): 106% | T/C (Sarcoma-180 [3]): 79% | T/C (Ehrlich [4]): 104% | T/C (P388 [5]): 87% | T/C (Ehrlich [6]): 204% | Activity [12]: Not Active

Structure (SMILES): [O-][n+]1ccccc1/C=N/NP(=S)(N/N=C/c1cccc[n+]1[O-])Oc1ccccc1
Activity [8]: Not Active | T/C (P388 [1]): 103% | T/C (Ehrlich [9]): 166% | T/C (Sarcoma-180 [11]): 85% | T/C (P388 [13]): 89% | T/C (Sarcoma-180 [3]): 89% | T/C (Ehrlich [4]): 123% | logP [7]: 1.28 | Activity [12]: Not Active
